Test results reported in the NIST ThermoML archive (doi:10.1016/j.jct.2011.02.018).

Assay: xn = mol fraction of the nth substance listed
Conditions: 101 kPa, Liquid; for viscosity: Concentric cylinders viscometry; for mass density: Vibrating tube method

COC(C)(C)C [2-methoxy-2-methylpropane] + CCO
Conditions | mass density, 293.15 K [kg/m3] | mass density, 298.15 K [kg/m3] | mass density, 303.15 K [kg/m3] | mass density, 308.15 K [kg/m3] | viscosity, 293.15 K [mPa·s] | viscosity, 298.15 K [mPa·s] | viscosity, 303.15 K [mPa·s] | viscosity, 308.15 K [mPa·s]
x1 = 0.0097 | 789.03 | 784.78 | 780.44 | 776.08 | 1.174 | 1.067 | 0.9713 | 0.884
x1 = 0.0198 | 788.28 | 783.99 | 779.64 | 775.26 | 1.146 | 1.043 | 0.9506 | 0.8659
x1 = 0.0301 | 787.54 | 783.23 | 778.87 | 774.47 | 1.118 | 1.027 | 0.9348 | 0.8484
x1 = 0.0402 | 786.85 | 782.54 | 778.16 | 773.74 | 1.092 | 0.9956 | 0.9088 | 0.8298
x1 = 0.0502 | 786.37 | 782.01 | 777.63 | 773.2 | 1.073 | 0.9782 | 0.893 | 0.8165
x1 = 0.0583 | 785.66 | 781.32 | 776.91 | 772.46 | 1.049 | 0.9582 | 0.8745 | 0.7986
x1 = 0.07 | 784.87 | 780.51 | 776.08 | 771.61 | 1.023 | 0.9337 | 0.854 | 0.7813
x1 = 0.0801 | 784.2 | 779.82 | 775.37 | 770.89 | 1 | 0.9146 | 0.8364 | 0.7634
x1 = 0.0861 | 783.96 | 779.52 | 775.09 | 770.6 | 0.9912 | 0.9061 | 0.8291 | 0.7578
x1 = 0.1009 | 782.99 | 778.56 | 774.11 | 769.6 | 0.9622 | 0.8805 | 0.806 | 0.7369
x1 = 0.154 | 779.59 | 775.08 | 770.56 | 765.97 | 0.8624 | 0.792 | 0.7283 | 0.6689
x1 = 0.2006 | 776.77 | 772.21 | 767.62 | 762.96 | 0.7889 | 0.7263 | 0.6694 | 0.6147
x1 = 0.2471 | 774.06 | 769.46 | 764.79 | 760.08 | 0.7261 | 0.6707 | 0.6185 | 0.5661
x1 = 0.2975 | 771.22 | 766.56 | 761.83 | 757.06 | 0.6675 | 0.6182 | 0.5731 | 0.5259
x1 = 0.3487 | 768.46 | 763.75 | 758.96 | 754.12 | 0.6166 | 0.5722 | 0.5309 | 0.4855
x1 = 0.3976 | 765.94 | 761.16 | 756.32 | 751.43 | 0.5761 | 0.5357 | 0.4954 | 0.4552
x1 = 0.4532 | 763.17 | 758.36 | 753.45 | 748.5 | 0.5354 | 0.4987 | 0.4638 | 0.4257
x1 = 0.5007 | 760.96 | 756.08 | 751.15 | 746.15 | 0.5062 | 0.4708 | 0.4353 | 0.3994
x1 = 0.5505 | 758.76 | 753.83 | 748.85 | 743.8 | 0.4798 | 0.4482 | 0.4155 | 0.379
x1 = 0.5998 | 756.62 | 751.67 | 746.63 | 741.53 | 0.4564 | 0.426 | 0.3967 | 0.363
x1 = 0.6484 | 754.48 | 749.51 | 744.43 | 739.29 | 0.4361 | 0.4083 | 0.3808 | 0.3487
x1 = 0.6995 | 752.35 | 747.32 | 742.19 | 737 | 0.4156 | 0.39 | 0.3632 | 0.3313
x1 = 0.749 | 750.35 | 745.3 | 740.14 | 734.91 | 0.3998 | 0.3751 | 0.3459 | 0.3273
x1 = 0.7995 | 748.36 | 743.27 | 738.06 | 732.8 | 0.3844 | 0.3616 | 0.3381 | 0.3084
x1 = 0.8496 | 746.44 | 741.31 | 736.08 | 730.78 | 0.3715 | 0.3488 | 0.3271 | 0.3025
x1 = 0.9009 | 744.51 | 739.34 | 734.07 | 728.75 | 0.3589 | 0.3384 | 0.3159 | 0.2963
x1 = 0.9093 | 744.2 | 739.04 | 733.77 | 728.45 | 0.3573 | 0.3382 | 0.3136 | 0.2948
x1 = 0.9166 | 743.9 | 738.72 | 733.47 | 728.14 | 0.3534 | 0.3338 | 0.3143 | 0.2965
x1 = 0.9299 | 743.35 | 738.18 | 732.9 | 727.57 | 0.352 | 0.3326 | 0.3136 | 0.2908
x1 = 0.9398 | 742.96 | 737.79 | 732.51 | 727.17 | 0.35 | 0.3294 | 0.3107 | 0.2884
x1 = 0.9501 | 742.54 | 737.38 | 732.09 | 726.76 | 0.348 | 0.3264 | 0.3068 | 0.2842
x1 = 0.9597 | 742.15 | 736.97 | 731.71 | 726.36 | 0.3458 | 0.3256 | 0.3066 | 0.2829
x1 = 0.968 | 741.84 | 736.66 | 731.37 | 726.03 | 0.3444 | 0.3247 | 0.3062 | 0.282
x1 = 0.9802 | 741.35 | 736.15 | 730.87 | 725.52 | 0.3418 | 0.3226 | 0.304 | 0.2809
x1 = 0.9868 | 741.1 | 735.92 | 730.61 | 725.26 | 0.3421 | 0.3209 | 0.3005 | 0.2794
